# In patent US9758526B2, “Quinoline-substituted compound” (TAIHO PHARMACEUTICAL CO., LTD., priority 2013, dated 2017):
# Key:
# EGFR (T790M/L858R) = target: T1, EGFR (T790M/L858R) (Homo sapiens, UniProt P00533, L858R/T790M); assay: EGFR (T790M/L858R) kinase inhibitory activity; type: biochemical; details: ATP 1 μM, 25° C. for 120 minutes
# T1 construct: purchased Carna Biosciences, Inc
# Procedure: The inhibitory activities of the compounds of the present invention against EGFR (T790M/L858R) kinase activity were measured.
# (§1) Among the materials of the inhibitory activity measurement, the substrate peptide and the kinase protein were obtained as follows. A peptide with biotinylated N-terminus (biotin-EEPLYWSFPAKKK) was synthesized with reference to FL-Peptide 22, a reagent for LabChip® series of PerkinElmer, Inc. For the kinase protein, a purified recombinant human EGFR (T790M/L858R) protein of Carna Biosciences, Inc. was purchased.
# (§2) The inhibitory activity measurement was performed as follows. The compounds of the present invention were individually dissolved in dimethyl sulfoxide (DMSO), and serial dilutions of these compounds were prepared using DMSO. Subsequently, a solution containing the substrate peptide (final concentration: 250 nM), magnesium chloride (final concentration: 10 mM), manganese chloride (final concentration: 10 mM), and ATP (final concentration: 1 μM) in a buffer solution for kinase reaction (Carna Biosciences, Inc.) was mixed with the dilutions of the compounds (final concentration of DMSO upon kinase reaction: 2.5%) or DMSO (final concentration: 2.5%). EGFR (T790M/L858R) protein was further added thereto, and the mixtures were incubated at 25° C. for 120 minutes to carry out a kinase reaction. EDTA was added thereto to a final concentration of 24 mM to thereby terminate the reaction. A phosphorylated thyrosine detection solution containing europium (Eu)-labeled anti-phosphorylated tyrosine antibody PT66 (PerkinElmer, Inc.) and SureLight APC-SA (PerkinElmer, Inc.) was added to the reaction mixtures, and the mixtures were allowed to stand at room temperature for 2 hours or more. For the background, a sample to which EDTA was added before addition of EGFR (T790M/L858R) protein was incubated at 25° C. for 120 minutes, using DMSO instead of the DMSO solution of the compound. The detection solution was also added to this sample, and the mixture was allowed to stand for 2 hours or more. Finally, for all of the test samples, the amount of fluorescence at the time of irradiation of excitation light having a wavelength of 337 nm was measured at dual wavelengths of 620 nm and 665 nm by PHERAstar FS (BMG LABTECH), and a ratio of the fluorescence amounts at the two wavelengths was obtained as data.
# (§3) Based on the above rates, phosphorylation inhibition rates (%) were calculated for the samples to which various concentrations of the compound solutions were added. Finally, the obtained reaction inhibition rates (%) at the respective concentrations were plotted for each compound, and the IC50 value (nM), which is a compound concentration at which phosphorylation by EGFR (T790M/L858R) is inhibited by 50%, was determined using XLfit curve-fitting software (IDBS).
# EGFR (d746-750/T790M) = target: T2, EGFR (d746-750/T790M) (Homo sapiens, UniProt P00533, DEL746-750/T790M); assay: EGFR (d746-750/T790M) kinase inhibitory activity; type: biochemical; details: ATP 1.5 μM
# T2 construct: purchased Carna Biosciences, Inc
# T2 sequence (P00533 with tags, fused parts or gaps DEL746-750/T790M limits assumed): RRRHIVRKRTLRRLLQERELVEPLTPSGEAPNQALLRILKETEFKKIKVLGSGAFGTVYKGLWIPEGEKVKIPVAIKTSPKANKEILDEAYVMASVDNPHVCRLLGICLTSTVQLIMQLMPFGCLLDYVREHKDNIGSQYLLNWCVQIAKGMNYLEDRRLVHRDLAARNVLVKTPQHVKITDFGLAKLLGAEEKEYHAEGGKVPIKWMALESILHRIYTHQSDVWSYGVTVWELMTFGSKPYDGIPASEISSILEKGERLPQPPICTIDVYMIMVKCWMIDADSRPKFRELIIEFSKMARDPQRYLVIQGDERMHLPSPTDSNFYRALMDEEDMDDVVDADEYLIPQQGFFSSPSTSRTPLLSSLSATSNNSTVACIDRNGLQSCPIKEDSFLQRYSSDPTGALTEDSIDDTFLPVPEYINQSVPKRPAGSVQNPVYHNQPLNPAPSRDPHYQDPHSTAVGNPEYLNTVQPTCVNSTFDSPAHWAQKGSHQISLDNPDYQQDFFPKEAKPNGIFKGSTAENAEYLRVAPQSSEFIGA
# Procedure: as §1, §2, §3
# The inhibitory activities of the compounds of the present invention against EGFR (d746-750/T790M) kinase activity were measured.
# The materials, the measurement method, and the data analysis method were substantially the same as those shown in the above description regarding “Measurement of EGFR (T790M/L858R) Kinase Inhibitory Activity,” except that a purified recombinant human EGFR (d746-750/T790M) protein purchased from Carna Biosciences, Inc. was used as the kinase protein, and the measurement was performed with an ATP final concentration of 1.5 μM. Finally, the IC50 value (nM) of each compound with respect to EGFR (d746-750/T790M) was determined by data analysis.
# EGFR (L858R) = target: T3, EGFR (L858R) (Homo sapiens, UniProt P00533, L858R); assay: EGFR (L858R) kinase inhibitory activity; type: biochemical; details: ATP 4 μM
# T3 construct: purchased Carna Biosciences, Inc
# T3 sequence (P00533 25-1210 L858R): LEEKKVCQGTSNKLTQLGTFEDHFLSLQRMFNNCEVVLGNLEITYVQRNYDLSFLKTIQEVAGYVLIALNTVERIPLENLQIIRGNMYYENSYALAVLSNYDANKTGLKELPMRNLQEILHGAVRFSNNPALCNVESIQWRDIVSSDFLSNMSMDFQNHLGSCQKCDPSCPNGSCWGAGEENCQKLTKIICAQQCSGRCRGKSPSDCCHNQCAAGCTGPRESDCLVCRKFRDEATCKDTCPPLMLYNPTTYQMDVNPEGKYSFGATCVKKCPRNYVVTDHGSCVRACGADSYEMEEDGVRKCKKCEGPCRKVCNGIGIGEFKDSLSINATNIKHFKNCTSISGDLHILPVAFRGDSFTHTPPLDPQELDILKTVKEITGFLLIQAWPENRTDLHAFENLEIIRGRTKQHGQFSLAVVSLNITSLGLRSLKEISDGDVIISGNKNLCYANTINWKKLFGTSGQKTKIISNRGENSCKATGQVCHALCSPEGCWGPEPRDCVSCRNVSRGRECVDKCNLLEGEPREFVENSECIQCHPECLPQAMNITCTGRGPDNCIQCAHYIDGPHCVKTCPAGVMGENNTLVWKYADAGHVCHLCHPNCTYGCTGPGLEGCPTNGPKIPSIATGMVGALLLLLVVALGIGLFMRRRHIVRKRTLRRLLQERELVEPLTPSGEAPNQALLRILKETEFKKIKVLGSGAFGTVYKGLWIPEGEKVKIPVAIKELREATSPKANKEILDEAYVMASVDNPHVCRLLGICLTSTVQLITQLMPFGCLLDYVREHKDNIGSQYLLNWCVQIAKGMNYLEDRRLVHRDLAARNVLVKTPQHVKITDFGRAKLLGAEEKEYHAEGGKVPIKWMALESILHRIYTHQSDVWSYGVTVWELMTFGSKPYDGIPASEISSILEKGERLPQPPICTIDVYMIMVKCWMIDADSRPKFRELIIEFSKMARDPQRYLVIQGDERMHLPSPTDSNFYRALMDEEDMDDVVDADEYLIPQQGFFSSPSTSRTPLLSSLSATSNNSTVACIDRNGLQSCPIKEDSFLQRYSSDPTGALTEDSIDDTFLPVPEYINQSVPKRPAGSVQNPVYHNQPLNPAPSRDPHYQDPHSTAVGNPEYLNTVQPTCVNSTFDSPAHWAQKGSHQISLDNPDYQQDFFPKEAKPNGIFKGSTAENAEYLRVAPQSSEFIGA
# Procedure: as §1, §2, §3
# The inhibitory activities of the compounds of the present invention against EGFR (L858R) kinase activity were measured.
# The materials, the measurement method, and the data analysis method were substantially the same as those shown in the above description regarding “Measurement of EGFR (T790M/L858R) Kinase Inhibitory Activity,” except that a purified recombinant human EGFR (L858R) protein purchased from Carna Biosciences, Inc. was used as the kinase protein, and the measurement was performed with ATP at a final concentration of 4 μM. Finally, the IC50 value (nM) of each compound with respect to EGFR (L858R) was determined by data analysis.
# EGFR (d746-750) = target: T4, EGFR (d746-750) (Homo sapiens, UniProt P00533, DEL746-750); assay: EGFR (d746-750) kinase inhibitory activity; type: biochemical; details: ATP 5 μM, kinase reaction 90 minutes
# T4 construct: purchased Carna Biosciences, Inc
# T4 sequence (P00533 with tags, fused parts or gaps DEL746-750 limits assumed): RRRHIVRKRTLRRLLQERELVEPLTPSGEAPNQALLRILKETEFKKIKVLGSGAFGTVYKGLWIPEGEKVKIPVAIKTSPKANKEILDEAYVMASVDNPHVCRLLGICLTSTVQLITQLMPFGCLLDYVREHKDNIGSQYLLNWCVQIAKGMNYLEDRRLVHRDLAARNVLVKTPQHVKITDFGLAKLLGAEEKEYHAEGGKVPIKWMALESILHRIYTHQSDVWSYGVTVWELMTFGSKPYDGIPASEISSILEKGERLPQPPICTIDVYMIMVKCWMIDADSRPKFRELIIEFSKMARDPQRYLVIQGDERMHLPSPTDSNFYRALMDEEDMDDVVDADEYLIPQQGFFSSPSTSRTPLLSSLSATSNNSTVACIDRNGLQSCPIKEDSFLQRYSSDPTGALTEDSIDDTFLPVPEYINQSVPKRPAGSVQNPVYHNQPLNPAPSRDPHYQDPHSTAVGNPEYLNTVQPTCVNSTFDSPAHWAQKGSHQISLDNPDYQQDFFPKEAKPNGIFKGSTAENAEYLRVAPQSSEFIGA
# Procedure: as §1, §2, §3
# The inhibitory activities of the compounds of the present invention against EGFR (d746-750) kinase activity were measured.
# The materials, the measurement method, and the data analysis method were substantially the same as those shown in the above description regarding “Measurement of EGFR (T790M/L858R) Kinase Inhibitory Activity,” except that a purified recombinant human EGFR (d746-750) protein purchased from Carna Biosciences, Inc. was used as the kinase protein, the measurement was performed with ATP at a final concentration of 5 μM, and the incubation for the kinase reaction was performed for 90 minutes. Finally, the IC50 value (nM) of each compound with respect to EGFR (d746-750) was determined by data analysis.
# EGFR (WT) = target: T5, EGFR (WT) (Homo sapiens, UniProt P00533); assay: EGFR (WT) kinase inhibitory activity; type: biochemical; details: substrate peptide 500 nM
# T5 construct: expressing a cytoplasmic domain of human EGFR (WT) with its N-terminus fused to a FLAG tag; FLAG (N); made in house; host or cells: insect Sf9 cells, baculovirus expression system
# T5 sequence (P00533 669-1210 limits assumed): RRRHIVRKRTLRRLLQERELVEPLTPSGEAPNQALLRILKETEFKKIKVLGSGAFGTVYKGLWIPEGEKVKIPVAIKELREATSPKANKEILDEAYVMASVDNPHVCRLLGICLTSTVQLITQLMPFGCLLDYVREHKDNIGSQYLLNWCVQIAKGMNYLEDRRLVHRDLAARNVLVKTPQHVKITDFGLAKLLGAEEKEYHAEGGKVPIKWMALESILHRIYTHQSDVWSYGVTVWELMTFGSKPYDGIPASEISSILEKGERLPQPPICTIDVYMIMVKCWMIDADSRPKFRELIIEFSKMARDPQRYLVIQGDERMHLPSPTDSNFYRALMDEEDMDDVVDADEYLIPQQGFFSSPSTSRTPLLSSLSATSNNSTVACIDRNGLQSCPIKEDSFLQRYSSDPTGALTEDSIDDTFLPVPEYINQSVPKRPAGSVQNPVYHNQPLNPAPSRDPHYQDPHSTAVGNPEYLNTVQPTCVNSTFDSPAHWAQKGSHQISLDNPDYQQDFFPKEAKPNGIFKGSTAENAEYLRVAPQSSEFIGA
# Procedure: as §1, §2, §3
# The inhibitory activities of the compounds of the present invention against EGFR (WT) kinase activity were measured.
# The materials, the measurement method, and the data analysis method were substantially the same as those shown in the above description regarding “Measurement of EGFR (T790M/L858R) Kinase Inhibitory Activity,” except that a kinase protein prepared by expressing a cytoplasmic domain of human EGFR (WT) with its N-terminus fused to a FLAG tag in insect Sf9 cells using a baculovirus expression system and then purifying it with anti-FLAG antibody agarose (Sigma-Aldrich) was used as the kinase protein, the final concentration of the substrate peptide was 500 nM, and the final concentration of ATP was […]. Finally, the IC50 value (nM) of each compound with respect to EGFR (WT) was determined by data analysis.
# [1] = system: NCI-H1975 expressing EGFR (T790M/L858R); assay: Growth inhibition, NCI-H1975 expressing EGFR (T790M/L858R); type: cell-based; details: Homo sapiens, NCI-H1975, 72 h; cultured three days, CellTiter-Glo
# Procedure: (§4) (1) A human […] lung cancer cell line NCI-H1975 expressing EGFR (T790M/L858R), (2) a human non-small cell lung cancer cell line HCC827 expressing EGFR (d746-750), and (3) a human epithelioid cancer cell line A431 expressing EGFR (WT) were each suspended in complete growth medium recommended by ATCC. The cell suspensions were seeded in each well of a 384-well flat microplate or a 96-well flat plate, and cultured in an incubator containing 5% carbon dioxide gas at 37° C. for one day. Each compound of the present invention was dissolved in DMSO, and serial dilutions of the test compound were prepared using DMSO (to a concentration 500 times the final concentration). The DMSO solution of the test compound or DMSO was diluted with complete growth medium, and the resulting solution was added to each well of the cell culture plate so that the final concentration of DMSO was 0.2%. Then, the cells were cultured in an incubator containing 5% carbon dioxide gas at 37° C. for three days. The number of cells was measured before the addition of the DMSO solution of the test compound, as well as after addition and culture by using a CellTiter-Glo Assay® (produced by Promega) according to a protocol recommended by Promega.
# (§5) For each cell, the cell growth inhibition rates of the wells to which the test compounds at various concentrations were added were calculated by the following formula. Then, the obtained inhibition rates (%) at the respective concentrations were plotted for each test compound, and the GI50 value (nM), which is a test compound concentration at which the cell growth can be inhibited by 50%, was determined using XLfit curve-fitting software (IDBS). • Cell Growth Inhibition Rate (%)=(C−T)/(C−CO)×100 • T: Luminescence intensity of well cultured for three days after addition of the test compound solution • C: Luminescence intensity of well cultured for three days after addition of DMSO • C0: Luminescence intensity of well before addition of the test compound solution
# [2] = system: HCC827 expressing EGFR (d746-750); assay: Growth inhibition, HCC827 expressing EGFR (d746-750); type: cell-based; details: Homo sapiens, HCC827, 72 h; cultured three days, CellTiter-Glo
# Procedure: as §4, §5
# [3] = system: A431 expressing EGFR (WT); assay: Growth inhibition, A431 expressing EGFR (WT); type: cell-based; details: Homo sapiens, A-431, 72 h; cultured three days, CellTiter-Glo
# Procedure: as §4, §5
# T1 sequence (P00533 25-1210 T790M/L858R): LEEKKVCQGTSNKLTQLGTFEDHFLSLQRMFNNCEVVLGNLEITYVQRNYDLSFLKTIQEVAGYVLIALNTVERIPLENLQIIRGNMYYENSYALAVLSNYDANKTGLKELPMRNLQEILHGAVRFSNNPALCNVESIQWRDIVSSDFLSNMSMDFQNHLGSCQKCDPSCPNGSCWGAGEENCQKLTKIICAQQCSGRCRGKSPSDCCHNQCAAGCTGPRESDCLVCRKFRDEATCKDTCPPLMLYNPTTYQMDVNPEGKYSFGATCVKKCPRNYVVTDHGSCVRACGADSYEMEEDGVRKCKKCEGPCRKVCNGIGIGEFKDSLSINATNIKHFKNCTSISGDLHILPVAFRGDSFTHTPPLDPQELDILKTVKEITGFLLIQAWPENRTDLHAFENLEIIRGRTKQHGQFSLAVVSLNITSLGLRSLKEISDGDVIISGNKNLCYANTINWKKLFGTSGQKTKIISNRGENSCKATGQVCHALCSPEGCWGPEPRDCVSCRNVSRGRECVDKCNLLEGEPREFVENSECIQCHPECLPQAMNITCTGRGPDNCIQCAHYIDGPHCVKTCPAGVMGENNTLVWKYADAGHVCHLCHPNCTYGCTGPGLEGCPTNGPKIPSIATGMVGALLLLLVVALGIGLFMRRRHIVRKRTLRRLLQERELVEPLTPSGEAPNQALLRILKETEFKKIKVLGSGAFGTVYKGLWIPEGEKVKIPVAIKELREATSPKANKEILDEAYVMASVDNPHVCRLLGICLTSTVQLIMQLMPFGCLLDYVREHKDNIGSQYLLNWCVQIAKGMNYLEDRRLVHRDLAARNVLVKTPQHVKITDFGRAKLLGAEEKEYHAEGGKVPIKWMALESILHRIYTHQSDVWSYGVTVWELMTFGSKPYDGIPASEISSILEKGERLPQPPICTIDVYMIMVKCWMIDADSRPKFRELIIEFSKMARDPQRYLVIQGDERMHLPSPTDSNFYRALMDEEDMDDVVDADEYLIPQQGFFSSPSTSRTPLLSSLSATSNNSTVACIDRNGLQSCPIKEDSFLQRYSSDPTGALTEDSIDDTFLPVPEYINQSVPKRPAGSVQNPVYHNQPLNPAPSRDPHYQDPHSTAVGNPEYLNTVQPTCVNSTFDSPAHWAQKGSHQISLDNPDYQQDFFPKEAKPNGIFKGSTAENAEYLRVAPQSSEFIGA
SMILES,IC50 (EGFR (T790M/L858R)) [nM],IC50 (EGFR (d746-750/T790M)) [nM],IC50 (EGFR (L858R)) [nM],IC50 (EGFR (d746-750)) [nM],IC50 (EGFR (WT)) [nM],GI50 [1] [nM],GI50 [2] [nM],GI50 [3] [nM]
"C=C1c2c(-c3cnc4ccccc4c3)c3c(N)ncnc3n2C[C@H]1NC(=O)C=CC (mixture of isomers) [Example 3, (S)—N-(4-amino-6-methylene-5-(quinolin-3-yl)-7,8-dihydro-6H -pyrimido[5,4-b]pyrrolizin-7-yl)but-2-enamide]",6.1,1.8,15,7.6,110,560,16,> 10000
"C=C1c2c(-c3cnc4ccccc4c3)c3c(N)ncnc3n2C[C@H]1NC(=O)/C=C/CN(C)C [Example 4, (S,E)-N-(4-amino-6-methylene-5-(quinolin-3-yl)-7,8-dihydro-6H-pyrimido[5,4-b]pyrrolizin-7-yl)-4-(dimethylamino)but-2-enamide]",0.4,< 0.5,0.63,0.45,6,140,5.5,2400
"C=CC(=O)N(C)[C@@H]1CC(=C)c2c(-c3cnc4ccccc4c3)c3c(N)ncnc3n2C1 [Example 22, (R)—N-(4-amino-6-methylene-5-(quinolin-3-yl)-6,7,8,9-tetrahydropyrimido[5,4-b]indolizin-8-yl)-N-methylacrylamide]",0.35,0.23,0.37,0.33,5.5,56,5.7,1500
"C=CC(=O)N[C@@H]1C=C(C)c2c(-c3cnc4ccccc4c3)c3c(N)ncnc3n2C1 [Example 16, (R)—N-(4-amino-6-methyl-5-(quinolin-3-yl)-8,9-dihydropyrimido[5,4-b]indolizin-8-yl)acrylamide]",11,3,39,15,480,600,27,> 10000
"C=CC(=O)N[C@H]1C=C(C)c2c(-c3cnc4ccccc4c3)c3c(N)ncnc3n2C1 [Example 14, (S)—N-(4-amino-6-methyl-5-(quinolin-3-yl)-8,9-dihydropyrimido[5,4-b]indolizin-8-yl)acrylamide]",0.24,< 0.5,0.32,0.19,2.9,22,2.5,1900
"C=C1c2c(-c3cnc4ccccc4c3)c3c(N)ncnc3n2C[C@H]1NC(=O)/C=C\Cl [Example 6, (S,Z)—N-(4-amino-6-methylene-5-(quinolin-3-yl)-7,8-dihydro-6H-pyrimido[5,4-b]pyrrolizin-7-yl)-3-chloroacrylamide]",0.24,< 0.15,0.45,0.24,4.9,54,3.3,520
"C=CC(=O)N[C@@H]1CCn2c(c(-c3cnc4ccccc4c3)c3c(N)ncnc32)C1=C [Example 13, (R)—N-(4-amino-6-methylene-5-(quinolin-3-yl)-6,7,8,9-tetrahydropyrimido[5,4-b]indolizin-7-yl)acrylamide]",2.1,1.1,2.8,2.1,24,150,13,1200
"C=C1c2c(-c3cnc4ccccc4c3)c3c(N)ncnc3n2C[C@H]1NC(=O)/C=C/CN(CC)CC [Example 10, (S,E)-N-(4-amino-6-methylene-5-(quinolin-3-yl)-7,8-dihydro-6H-pyrimido[5,4-b]pyrrolizin-7-yl)-4-(diethylamino)but-2-enamide]",1.5,0.61,2.6,1.8,22,310,8.1,4400
"C=CC(=O)N(C)[C@@H]1C=C(C)c2c(-c3cnc4ccccc4c3)c3c(N)ncnc3n2C1 [Example 23, (R)—N-(4-amino-6-methyl-5-(quinolin-3-yl)-8,9-dihydropyrimido[5,4-b]indolizin-8-yl)-N-methylacrylamide]",0.44,0.3,0.63,0.29,7.3,47,3.3,5100
